{"source": "patent US12522614B2", "about": "“Topical phosphoinositide 3-kinase inhibitors” (VENTHERA, INC., priority 2019, dated 2026)", "experiment": "Six-month stability study of topical gel formulations including Compound 1.002", "format": "physicochemical", "conditions": "40° C./75% RH", "procedure": "Unless otherwise indicated, a HPLC method was used to determine the content of Compound 1.002 and impurities; ASTM D 1544 was used as the standard test method for color of gel formulations; a gas chromatographic method was used to determine the content of oleic acid; and Brookfield viscometer was used to measure viscosity (cP) of gel formulations.\n(§1) The gel formulation in HPLC glass vials was subjected to stability study at 40° C./75%0 RH for 6 months. A purity of Compound 1.002 on month 0, 1, 3, and 6 month at 40° C./75% RH was determined by HPLC. The detected impurity of Compound 1.002 appears to be the hydrolysis product, as MTPP. Table 21 represents stability data of Compound 1.002 in the topical formulation having 1000 oleic acid. […]\nas §1, with “Lablabo Amcor Foil 18 mL containers” for “HPLC glass vials”, “C./75%” for “C./75%0”, “3, 4, 5,” for “3,”, “25” for “21”, “10%” for “1000”, “alcohol and 40% DPG.” for “acid.”", "key": {"[1]": {"conditions": "Table 20 gel (10% oleic acid, DPG), HPLC glass vials, month 0"}, "[2]": {"conditions": "Table 20 gel (10% oleic acid, DPG), HPLC glass vials, month 1"}, "[3]": {"conditions": "Table 20 gel (10% oleic acid, DPG), HPLC glass vials, month 3"}, "[4]": {"conditions": "Table 20 gel (10% oleic acid, DPG), HPLC glass vials, month 6"}, "[5]": {"conditions": "Table 24 gel (10% oleyl alcohol, 40% DPG), Lablabo Amcor Foil 18 mL containers, month 0"}, "[6]": {"conditions": "Table 24 gel (10% oleyl alcohol, 40% DPG), Lablabo Amcor Foil 18 mL containers, month 1"}, "[7]": {"conditions": "Table 24 gel (10% oleyl alcohol, 40% DPG), Lablabo Amcor Foil 18 mL containers, month 3"}, "[8]": {"conditions": "Table 24 gel (10% oleyl alcohol, 40% DPG), Lablabo Amcor Foil 18 mL containers, month 4"}, "[9]": {"conditions": "Table 24 gel (10% oleyl alcohol, 40% DPG), Lablabo Amcor Foil 18 mL containers, month 5"}, "[10]": {"conditions": "Table 24 gel (10% oleyl alcohol, 40% DPG), Lablabo Amcor Foil 18 mL containers, month 6"}}, "note": "Entries after “also recorded” stand apart in the source; their conditions may differ.", "data": [{"smiles": "CC(=O)Oc1cccc(-c2nc(N3CCOCC3)c3sccc3n2)c1", "note": "[Compound 1.002, 3-(4-Morpholinothieno[3,2-d]pyrimidin-2-yl)phenyl Acetate]", "values": [{"measurement": "Appearance", "setting": "[1]", "value": "Clear,; also recorded: no crystals"}, {"measurement": "Compound 1.002 Relative Purity", "setting": "[1]", "value": 100.0, "unit": "%"}, {"measurement": "Compound 1.002 content", "setting": "[1]", "value": 106.6, "unit": "mg/mL"}, {"measurement": "MTPP (Relative Purity)", "setting": "[1]", "value": 0.0, "unit": "%"}, {"measurement": "Other impurity (Relative Purity)", "setting": "[1]", "value": 0.0, "unit": "%"}, {"measurement": "Viscosity", "setting": "[1]", "value": "11,800 cP"}, {"measurement": "Appearance", "setting": "[2]", "value": "Clear,; also recorded: no crystals"}, {"measurement": "Compound 1.002 Relative Purity", "setting": "[2]", "value": 98.4, "unit": "%"}, {"measurement": "Compound 1.002 content", "setting": "[2]", "value": 106.0, "unit": "mg/mL"}, {"measurement": "MTPP (Relative Purity)", "setting": "[2]", "value": 1.2, "unit": "%"}, {"measurement": "Other impurity (Relative Purity)", "setting": "[2]", "value": 0.4, "unit": "%"}, {"measurement": "Viscosity", "setting": "[2]", "value": "12,600 cP"}, {"measurement": "Appearance", "setting": "[3]", "value": "Clear,; also recorded: no crystals"}, {"measurement": "Compound 1.002 Relative Purity", "setting": "[3]", "value": 97.5, "unit": "%"}, {"measurement": "Compound 1.002 content", "setting": "[3]", "value": 107.0, "unit": "mg/mL"}, {"measurement": "MTPP (Relative Purity)", "setting": "[3]", "value": 2.5, "unit": "%"}, {"measurement": "Other impurity (Relative Purity)", "setting": "[3]", "value": 0.0, "unit": "%"}, {"measurement": "Viscosity", "setting": "[3]", "value": "11,780 cP"}, {"measurement": "Appearance", "setting": "[4]", "value": "Clear,; also recorded: no crystals"}, {"measurement": "Compound 1.002 Relative Purity", "setting": "[4]", "value": 95.1, "unit": "%"}, {"measurement": "Compound 1.002 content", "setting": "[4]", "value": 109.1, "unit": "mg/mL"}, {"measurement": "MTPP (Relative Purity)", "setting": "[4]", "value": 4.9, "unit": "%"}, {"measurement": "Other impurity (Relative Purity)", "setting": "[4]", "value": 0.0, "unit": "%"}, {"measurement": "Viscosity", "setting": "[4]", "value": "12,760 cP"}, {"measurement": "Compound 1.002 Relative Purity", "setting": "[5]", "value": 100, "unit": "%"}, {"measurement": "Compound 1.002 content", "setting": "[5]", "value": 65.9, "unit": "mg/mL"}, {"measurement": "MTPP (Relative Purity)", "setting": "[5]", "value": 0.0, "unit": "%"}, {"measurement": "Visual Appearance", "setting": "[5]", "value": "no crystals"}, {"measurement": "Compound 1.002 Relative Purity", "setting": "[6]", "value": 98.9, "unit": "%"}, {"measurement": "Compound 1.002 content", "setting": "[6]", "value": 66.5, "unit": "mg/mL"}, {"measurement": "MTPP (Relative Purity)", "setting": "[6]", "value": 1.1, "unit": "%"}, {"measurement": "Visual Appearance", "setting": "[6]", "value": "no crystals"}, {"measurement": "Compound 1.002 Relative Purity", "setting": "[7]", "value": 99.0, "unit": "%"}, {"measurement": "Compound 1.002 content", "setting": "[7]", "value": 65.9, "unit": "mg/mL"}, {"measurement": "MTPP (Relative Purity)", "setting": "[7]", "value": 1.0, "unit": "%"}, {"measurement": "Visual Appearance", "setting": "[7]", "value": "no crystals"}, {"measurement": "Compound 1.002 Relative Purity", "setting": "[8]", "value": 97.0, "unit": "%"}, {"measurement": "Compound 1.002 content", "setting": "[8]", "value": 66.5, "unit": "mg/mL"}, {"measurement": "MTPP (Relative Purity)", "setting": "[8]", "value": 3.0, "unit": "%"}, {"measurement": "Visual Appearance", "setting": "[8]", "value": "no crystals"}, {"measurement": "Compound 1.002 Relative Purity", "setting": "[9]", "value": 97.3, "unit": "%"}, {"measurement": "Compound 1.002 content", "setting": "[9]", "value": 67.8, "unit": "mg/mL"}, {"measurement": "MTPP (Relative Purity)", "setting": "[9]", "value": 2.7, "unit": "%"}, {"measurement": "Visual Appearance", "setting": "[9]", "value": "no crystals"}, {"measurement": "Compound 1.002 Relative Purity", "setting": "[10]", "value": 90.0, "unit": "%"}, {"measurement": "Compound 1.002 content", "setting": "[10]", "value": 51.1, "unit": "mg/mL"}, {"measurement": "MTPP (Relative Purity)", "setting": "[10]", "value": 10.0, "unit": "%"}, {"measurement": "Visual Appearance", "setting": "[10]", "value": "no crystals"}]}]}
